In US11649218B2, “C-Abl tyrosine kinase inhibitory compound embodiments and methods of making and using the same” (The USA, as represented by the Secretary, Dept. of Health …, priority 2018, dated 2023):
pIC50: −log10 of the molar value.

Assays:
Leukemia K562 cell = Leukemia K562 cell proliferation/viability assay (CellTiterGlo, 48 hours); type: cell-based; design: unit not given here; conditions: K562 cells
In short: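 BCR-Abl-dependent K562 cells treated with compound for 48 hours in an HTS-adapted format. Viability read out with CellTiterGlo reagent.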

CML (K562) cell line = test: K562 cell proliferation inhibition by MTT assay, 48 hours; type: cell-based; conditions: Homo sapiens; K562, 48 hours, determined in different assays
Procedure: In this example, the ability of two compound embodiments described here, NCGC00373060 and NCGC00373056, to induce cell death in the CML (K562) cell line was evaluated. The leukemia cells were incubated with different concentrations of the compounds for 48 hours, and the cell proliferation inhibition was evaluated by the MTT assay. […] The leukemia cells were incubated with different concentrations of each compound embodiment for 48 hours, and the cell proliferation inhibition was evaluated by the MTT assay.

[1] = tested on: P. falciparum strain NF54 asexual parasites; test: Asexual stage parasite growth inhibition, SYBR Green assay, 72 hours; type: cell-based; conditions: NF54, 72 hours
Procedure: In this example, several of the c-Abl inhibitors were tested in the asexual […] strain of P. falciparum parasites for activity against malaria. […] The pre-diluted parasites were dispensed into a 1536-well plate (2.5 μL/well). […] The fluorescence of each well was measured at 520 nm following excitation at 490 nm using a ViewLux platereader (PerkinElmer).

[2] = Pharmacokinetic profile in plasma; type: in vivo, mice; conditions: 12.5 mg/kg IP
[3] = Pharmacokinetic profile in brain; type: in vivo, mice; conditions: 12.5 mg/kg IP
TLE mice model [4] = test: Pilocarpine-induced status epilepticus (SE) after 15 days of supplemented diet; type: in vivo, mice (C57BL/6)
Procedure: In this example, the ability of compound embodiments of the present disclosure to increase survival and diminish seizure symptoms in a TLE mice model was evaluated. […] The animals' weights were determined the week before and during the two weeks of c-Abl inhibitors treatment (results are provided in Table 12 and are illustrated graphically in FIG. 28). After 15 days of feeding, status epilepticus (SE) induction was evaluated. The mice were IP injected with Scopolamine (1.5 mg/Kg) and after 15 minutes, the SE was induced by IP injection of Pilocarpine (420 mg/Kg). The animals' behavior and the seizures induction was evaluated according to Racine's scale and the survival was determined during 60 minutes post-SE induction. […] Results are tabulated in Table 13, below and also are illustrated graphically in FIGS. 29A-29D.

TLE mice model [5] = test: Pilocarpine TLE epilepsy model, IP pre-treatment; conditions: 5 mg/Kg IP each day three days before Pilocarpine
Procedure: The injected animals were observed by 60 min after the Pilocarpine.

hippocampal neurons = test: Neuronal death induced by Glutamate, MTT cell viability test
[6] = mean, diet 67 ppm NCGC00373060 or 200 ppm Nilotinib

Q: Which Efficacy (Leukemia K562 cell) does the source give for `O=C1Nc2cc(OC(F)(F)F)ccc2Oc2ccc(-c3ccnc(N4CCNCC4)c3)cc21` [NCGC00373060, 2-(2-(Piperazin-1-yl)pyridin-4-yl)-8-(trifluoromethoxy)dibenzo[b,j][1,4]oxazepin-11(10H)-one] here?
A: −99.1

Q: And the AC50 (CML (K562) cell line)?
A: 5 µM

Q: What about the “% Killing” value [1] of the same compound?
A: 89.9%

Q: And the pIC50 ([1]; Plasmodium falciparum)?
A: 5.79

Q: What about the Plasma concentration ([2]; Time 0.167) of the same compound?
A: 4440 nM

Q: What about the Plasma concentration ([2]; Time 0.5) of the same compound?
A: 4784 nM

Q: And the Plasma concentration ([2]; Time 1)?
A: 7844 nM

Q: And the Plasma concentration ([2]; Time 2)?
A: 4112 nM

Q: What about the Plasma concentration ([2]; Time 4) of the same compound?
A: 2709 nM

Q: What about the Plasma concentration ([2]; Time 7) of the same compound?
A: 1723 nM

Q: And the Plasma concentration ([2]; Time 24)?
A: 581 nM

Q: And the Plasma concentration ([2]; Time 48)?
A: 138 nM

Q: And the Plasma concentration ([2]; Time 72)?
A: 70 nM

Q: What about the Plasma concentration ([2]; Time 96) of the same compound?
A: 36 nM

Q: And the Plasma concentration ([2]; Time 120)?
A: 11 nM

Q: And the Plasma concentration ([2]; Time 168)?
A: 4 nM

Q: And the Brain concentration ([3]; Time 0.167)?
A: 0.208 µmol/kg

Q: And the Brain concentration ([3]; Time 0.5)?
A: 0.275 µmol/kg

Q: What about the Brain concentration ([3]; Time 1) of the same compound?
A: 0.595 µmol/kg

Q: What about the Brain concentration ([3]; Time 2) of the same compound?
A: 0.912 µmol/kg

Q: And the Brain concentration ([3]; Time 4)?
A: 1.351 µmol/kg

Q: And the Brain concentration ([3]; Time 7)?
A: 1.887 µmol/kg

Q: What about the Brain concentration ([3]; Time 24) of the same compound?
A: 1.198 µmol/kg

Q: What about the Brain concentration ([3]; Time 48) of the same compound?
A: 0.493 µmol/kg

Q: And the Brain concentration ([3]; Time 72)?
A: 0.208 µmol/kg

Q: What about the Brain concentration ([3]; Time 96) of the same compound?
A: 0.089 µmol/kg

Q: And the Brain concentration ([3]; Time 120)?
A: 0.044 µmol/kg

Q: And the Brain concentration ([3]; Time 168)?
A: 0.010 µmol/kg

Q: What about the Survival % (TLE mice model [4]; individual mice, 60 minutes post-SE induction) of the same compound?
A: 100%

Q: And the “Latency SE” value (TLE mice model [4]; individual mice, diet 67 ppm NCGC00373060 or 200 ppm Nilotinib)?
A: 19 min

Q: And the “Survival %, mean” value (TLE mice model [4]; mean, 60 minutes post-SE induction)?
A: 100%

Q: What about the “Latency SE, mean” value (TLE mice model [4]; [6]) of the same compound?
A: 19 min

Q: And the “SE %, mean” value (TLE mice model [4]; [6])?
A: 40%

Q: What about the “mortality associated to the epileptic status” value (TLE mice model [5]) of the same compound?
A: decreases the mortality associated to the epileptic status

Q: What about the “seizures, latency time” value (TLE mice model [5]) of the same compound?
A: prevented the seizures increasing the latency time

Q: What about the “protection against neuronal death induced by Glutamate” value (hippocampal neurons) of the same compound?
A: protects neurons against neuronal death induced by Glutamate
